# Measured values reported in US12156909B2, “Reverse peptide vaccine” (Emergex Vaccines Holding Limited, priority 2018, dated 2024).
# Tested on: HLA-B7
# Assay: HLA binding of NEG8 peptides shared with other flu proteins (Table 5), B7
# Details: score printed after 'B7:'; no method or unit given
# Source text: (§1) was used to search datasets of T cell epitopes derived from influenza virus infected cells. The NEG8 peptides described in Examples 1 and 2 were also identified using this search. The purpose of performing the search was to establish whether any NEG8 peptides or sequences within the polypeptide encoded by the NEG8 ORF are shared with any other influenza A virus proteins. Table 5 sets out T cell epitopes derived from influenza A virus proteins other than NEG8 that are also comprised in one or more of the NEG8 peptides identified in Examples 1 and 2 or the polypeptide encoded by the NEG8 ORF. From this, numerous NEG8 peptides considered to bind to MHC in cells infected with influenza A virus can be identified based on confidence level, XCorr, and performance of fragment mass spectra.
row,Sequence,HLA binding B7
1,ALSSIRVSS (Influenza A virus),B7:7
2,SPLQLAILSL (Influenza A virus),B7:22

# Tested on: HLA-A2
# Assay: HLA binding of NEG8 peptides shared with other flu proteins (Table 5), A2
# Details: score printed after 'A2:'; no method or unit given
# Source text: as §1
row,Sequence,HLA binding A2
1,LFLICVSLL (Influenza A virus),A2:18
2,AFNMMFLSM,A2:10
3,FLICVSPLQL (Influenza A virus),A2:24
4,ALSSIRVSS (Influenza A virus),A2:16

# Tested on: MHC class I
# Assay: not given
# Assay type: cell-based
# Details: not given
row,Sequence,found in influenza A virus-infected cells
1,IAPSSVKALS (Influenza A virus),truly found in influenza A virus-infected cells
2,KITLKFAFNMM (Influenza A virus),truly found in influenza A virus-infected cells
3,LMQRGPSTF (Influenza A virus),truly found in influenza A virus-infected cells

# Tested on: HLA-A24
# Assay: HLA binding of NEG8 peptides shared with other flu proteins (Table 5), A24
# Details: no method or unit given
# Source text: as §1
row,Sequence,HLA binding A24
1,LFLICVSLL (Influenza A virus),A24:21
2,AFSVMFLSM,A24:7
3,AILSLQTFD (Influenza A virus),A24:2
4,AFNMMFLSM,A24:7
5,FLICVSPLQL (Influenza A virus),A24:13
